Values of other authors, collected in US20200188326A1, “COMPOSITIONS AND METHODS OF TREATMENT FOR MVID AND RELATED DISEASES” (Vanessa Research, Inc., priority 2015, published 2020).

Tested on: SLC26A3 exchanger
Conditions: in the intestine

Substance: Vitamin A
- upregulation of the expression of SLC26A3 exchanger: up to 4 fold
